Source: the kinase profiling compilation of Christmann-Franck et al. (2016)
One block for each molecule: values may come before it.

Legend:
Assay in all cases: radiometric filter-binding kinase assay
BRSK2 (human) = BRSK2 (human) (UniProt Q8IWQ3)
CAMKK2 (human) = CAMKK2 (human) (UniProt Q96RR4)
DYRK1A (human) = DYRK1A (human) (UniProt Q13627)
EEF2K (human) = EEF2K (human) (UniProt O00418)
FGFR1 (human) = FGFR1 (human) (UniProt P11362)
GSK3B (human) = GSK3B (human) (UniProt P49841)
IGF1R (human) = IGF1R (human) (UniProt P08069)
IKBKE (human) = IKBKE (human) (UniProt Q14164)
MAPK12 (human) = MAPK12 (human) (UniProt P53778)
MAPK13 (human) = MAPK13 (human) (UniProt O15264)
MAPK3 (human) = MAPK3 (human) (UniProt P27361)
MAPK9 (human) = MAPK9 (human) (UniProt P45984)
MAPKAPK2 (human) = MAPKAPK2 (human) (UniProt P49137)
MAPKAPK5 (human) = MAPKAPK5 (human) (UniProt Q8IW41)
MELK (human) = MELK (human) (UniProt Q14680)
MKNK1 (human) = MKNK1 (human) (UniProt Q9BUB5)
PAK7 (human) = PAK7 (human) (UniProt Q9P286)
PHKG1 (human) = PHKG1 (human) (UniProt Q16816)
PIM1 (human) = PIM1 (human) (UniProt P11309)
PIM2 (human) = PIM2 (human) (UniProt Q9P1W9)
PIM3 (human) = PIM3 (human) (UniProt Q86V86)
PRKAA1 or PRKAA2 (rat) = conditions: accession and sequence are those of the human protein
PRKACA (human) = PRKACA (human) (UniProt P17612)
PRKCZ (human) = PRKCZ (human) (UniProt Q05513)
[1] = test system: SGK1 (human), O00141 [S422D]
STK3 (human) = STK3 (human) (UniProt Q13188)
SYK (human) = SYK (human) (UniProt P43405)

Chain of BRSK2 (human) (Q8IWQ3 whole entry, looked up): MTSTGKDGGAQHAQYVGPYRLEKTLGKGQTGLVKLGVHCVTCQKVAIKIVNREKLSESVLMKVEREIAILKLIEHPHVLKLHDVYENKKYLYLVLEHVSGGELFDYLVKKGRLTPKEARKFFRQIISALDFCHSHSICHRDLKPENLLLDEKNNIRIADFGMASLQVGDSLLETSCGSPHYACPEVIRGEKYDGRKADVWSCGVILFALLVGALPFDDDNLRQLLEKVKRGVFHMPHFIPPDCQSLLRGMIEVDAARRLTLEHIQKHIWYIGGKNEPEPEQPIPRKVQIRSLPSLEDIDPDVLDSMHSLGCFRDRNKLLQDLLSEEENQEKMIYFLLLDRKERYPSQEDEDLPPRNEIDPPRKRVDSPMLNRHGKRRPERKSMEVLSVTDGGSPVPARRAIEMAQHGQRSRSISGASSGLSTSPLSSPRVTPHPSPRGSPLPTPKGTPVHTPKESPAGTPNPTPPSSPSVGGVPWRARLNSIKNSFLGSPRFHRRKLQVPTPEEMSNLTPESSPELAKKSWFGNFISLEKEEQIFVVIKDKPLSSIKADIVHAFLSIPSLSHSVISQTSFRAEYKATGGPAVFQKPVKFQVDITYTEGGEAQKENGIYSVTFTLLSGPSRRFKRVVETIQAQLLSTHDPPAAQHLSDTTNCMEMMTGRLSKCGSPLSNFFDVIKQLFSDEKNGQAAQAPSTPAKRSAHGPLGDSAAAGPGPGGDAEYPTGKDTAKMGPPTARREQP
Chain of MAPK13 (human) (O15264 whole entry, looked up): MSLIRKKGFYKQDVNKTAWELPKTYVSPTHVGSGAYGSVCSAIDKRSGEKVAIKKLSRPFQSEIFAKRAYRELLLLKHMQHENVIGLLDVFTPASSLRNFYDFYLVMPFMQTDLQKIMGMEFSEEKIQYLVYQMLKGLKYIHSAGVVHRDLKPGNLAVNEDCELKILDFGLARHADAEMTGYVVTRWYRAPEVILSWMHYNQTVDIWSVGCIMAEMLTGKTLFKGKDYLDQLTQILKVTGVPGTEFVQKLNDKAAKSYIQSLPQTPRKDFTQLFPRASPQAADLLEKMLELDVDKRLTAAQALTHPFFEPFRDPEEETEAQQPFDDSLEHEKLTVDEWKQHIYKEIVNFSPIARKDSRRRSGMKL
Chain of PIM1 (human) (P11309 whole entry, looked up): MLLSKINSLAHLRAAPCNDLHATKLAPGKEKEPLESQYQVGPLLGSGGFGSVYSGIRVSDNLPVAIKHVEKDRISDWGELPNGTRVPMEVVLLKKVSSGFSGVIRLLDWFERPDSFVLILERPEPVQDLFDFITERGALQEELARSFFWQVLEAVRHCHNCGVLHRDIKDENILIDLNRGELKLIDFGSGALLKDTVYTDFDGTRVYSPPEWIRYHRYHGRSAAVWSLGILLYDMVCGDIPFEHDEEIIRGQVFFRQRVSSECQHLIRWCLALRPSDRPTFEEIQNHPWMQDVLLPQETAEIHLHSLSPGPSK
Chain of PAK7 (human) (Q9P286 whole entry, looked up): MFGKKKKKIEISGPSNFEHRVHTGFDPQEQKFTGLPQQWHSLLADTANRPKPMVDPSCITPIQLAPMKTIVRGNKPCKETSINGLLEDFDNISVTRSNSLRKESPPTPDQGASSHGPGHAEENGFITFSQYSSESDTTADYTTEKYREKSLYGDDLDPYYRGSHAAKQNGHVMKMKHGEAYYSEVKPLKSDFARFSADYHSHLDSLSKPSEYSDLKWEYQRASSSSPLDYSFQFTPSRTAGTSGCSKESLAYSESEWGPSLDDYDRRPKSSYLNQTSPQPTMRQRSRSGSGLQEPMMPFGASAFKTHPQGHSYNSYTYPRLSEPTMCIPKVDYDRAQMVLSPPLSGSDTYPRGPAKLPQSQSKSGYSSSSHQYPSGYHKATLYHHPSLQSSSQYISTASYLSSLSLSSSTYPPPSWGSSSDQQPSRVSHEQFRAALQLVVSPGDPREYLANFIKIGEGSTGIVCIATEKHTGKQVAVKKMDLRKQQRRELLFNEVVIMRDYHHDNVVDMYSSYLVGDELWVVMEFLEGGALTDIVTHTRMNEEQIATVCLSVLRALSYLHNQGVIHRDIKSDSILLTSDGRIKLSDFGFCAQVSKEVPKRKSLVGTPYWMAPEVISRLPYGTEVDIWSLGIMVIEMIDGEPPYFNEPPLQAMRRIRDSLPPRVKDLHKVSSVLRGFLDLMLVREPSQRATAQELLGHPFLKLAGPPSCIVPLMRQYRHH
Chain of MELK (human) (Q14680 whole entry, looked up): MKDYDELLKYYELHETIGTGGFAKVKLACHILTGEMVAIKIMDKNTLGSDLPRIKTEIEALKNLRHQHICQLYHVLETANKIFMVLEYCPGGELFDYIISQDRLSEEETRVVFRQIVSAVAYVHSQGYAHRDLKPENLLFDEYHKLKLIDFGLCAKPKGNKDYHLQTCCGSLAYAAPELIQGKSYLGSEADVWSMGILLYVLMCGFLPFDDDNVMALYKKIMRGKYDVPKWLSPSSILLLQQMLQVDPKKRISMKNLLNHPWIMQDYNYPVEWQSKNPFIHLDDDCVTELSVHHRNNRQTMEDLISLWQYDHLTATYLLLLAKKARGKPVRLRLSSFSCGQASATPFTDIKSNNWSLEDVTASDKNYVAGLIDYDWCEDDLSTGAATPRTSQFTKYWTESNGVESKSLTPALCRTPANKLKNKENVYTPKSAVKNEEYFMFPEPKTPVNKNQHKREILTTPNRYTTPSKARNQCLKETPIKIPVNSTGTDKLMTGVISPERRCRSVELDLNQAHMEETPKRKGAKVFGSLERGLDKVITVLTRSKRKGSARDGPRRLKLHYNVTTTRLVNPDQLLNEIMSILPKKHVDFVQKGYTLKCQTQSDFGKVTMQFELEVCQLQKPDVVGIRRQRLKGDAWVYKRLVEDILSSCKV
Chain of MAPK3 (human) (P27361 whole entry, looked up): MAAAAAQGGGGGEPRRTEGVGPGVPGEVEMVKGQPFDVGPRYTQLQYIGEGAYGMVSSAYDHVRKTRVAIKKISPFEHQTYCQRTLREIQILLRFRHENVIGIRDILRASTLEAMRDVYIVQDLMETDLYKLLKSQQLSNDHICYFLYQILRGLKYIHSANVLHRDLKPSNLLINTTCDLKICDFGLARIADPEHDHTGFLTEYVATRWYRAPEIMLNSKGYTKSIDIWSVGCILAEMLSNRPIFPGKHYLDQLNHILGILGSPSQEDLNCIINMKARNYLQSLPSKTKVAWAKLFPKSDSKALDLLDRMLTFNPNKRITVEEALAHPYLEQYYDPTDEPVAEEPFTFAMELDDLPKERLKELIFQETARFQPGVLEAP
Chain of IKBKE (human) (Q14164 whole entry, looked up): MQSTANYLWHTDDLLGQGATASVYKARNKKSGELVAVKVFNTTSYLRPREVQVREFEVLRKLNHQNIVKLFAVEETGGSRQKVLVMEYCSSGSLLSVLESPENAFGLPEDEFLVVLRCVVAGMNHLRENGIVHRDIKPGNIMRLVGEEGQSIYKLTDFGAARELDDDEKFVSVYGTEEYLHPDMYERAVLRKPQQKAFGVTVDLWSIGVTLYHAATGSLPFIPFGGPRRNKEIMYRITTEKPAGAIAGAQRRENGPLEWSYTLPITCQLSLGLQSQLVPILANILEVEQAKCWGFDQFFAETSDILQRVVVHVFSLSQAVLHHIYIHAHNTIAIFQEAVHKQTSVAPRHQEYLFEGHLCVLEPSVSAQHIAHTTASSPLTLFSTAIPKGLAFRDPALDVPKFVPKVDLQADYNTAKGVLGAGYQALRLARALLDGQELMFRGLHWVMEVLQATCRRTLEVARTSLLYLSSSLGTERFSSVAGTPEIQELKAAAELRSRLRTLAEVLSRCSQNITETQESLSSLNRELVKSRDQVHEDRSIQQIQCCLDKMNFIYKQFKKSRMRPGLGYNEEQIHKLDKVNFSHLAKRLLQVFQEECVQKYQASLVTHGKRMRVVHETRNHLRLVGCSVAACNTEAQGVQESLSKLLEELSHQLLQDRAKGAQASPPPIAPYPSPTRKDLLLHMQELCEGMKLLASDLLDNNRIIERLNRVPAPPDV
Chain of MKNK1 (human) (Q9BUB5 whole entry, looked up): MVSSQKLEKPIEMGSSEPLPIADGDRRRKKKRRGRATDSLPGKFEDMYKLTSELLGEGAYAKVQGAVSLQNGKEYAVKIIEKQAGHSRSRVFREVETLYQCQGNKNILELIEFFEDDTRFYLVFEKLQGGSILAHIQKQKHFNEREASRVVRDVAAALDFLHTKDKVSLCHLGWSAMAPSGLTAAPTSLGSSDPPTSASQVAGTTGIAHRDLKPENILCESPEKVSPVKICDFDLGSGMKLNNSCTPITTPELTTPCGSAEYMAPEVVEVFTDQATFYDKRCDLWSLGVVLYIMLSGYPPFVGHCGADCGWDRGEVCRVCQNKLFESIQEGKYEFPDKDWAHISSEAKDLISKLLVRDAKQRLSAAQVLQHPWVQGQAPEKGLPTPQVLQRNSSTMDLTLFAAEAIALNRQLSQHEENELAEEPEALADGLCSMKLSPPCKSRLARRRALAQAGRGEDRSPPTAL
Chain of STK3 (human) (Q13188 whole entry, looked up): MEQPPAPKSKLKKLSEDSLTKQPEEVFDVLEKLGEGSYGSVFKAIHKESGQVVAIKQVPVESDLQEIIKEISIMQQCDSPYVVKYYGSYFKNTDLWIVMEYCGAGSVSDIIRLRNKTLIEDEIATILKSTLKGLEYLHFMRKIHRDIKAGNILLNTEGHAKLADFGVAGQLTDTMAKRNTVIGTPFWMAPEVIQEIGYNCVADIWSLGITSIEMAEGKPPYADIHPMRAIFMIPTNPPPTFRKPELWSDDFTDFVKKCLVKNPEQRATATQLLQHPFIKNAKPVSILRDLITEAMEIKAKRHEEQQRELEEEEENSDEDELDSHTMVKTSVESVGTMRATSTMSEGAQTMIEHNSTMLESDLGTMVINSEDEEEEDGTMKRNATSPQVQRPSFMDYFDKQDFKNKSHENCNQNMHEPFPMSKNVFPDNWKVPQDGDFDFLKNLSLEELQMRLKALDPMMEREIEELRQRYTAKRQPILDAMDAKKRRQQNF

- residual activity (BRSK2 (human); compound 0.1 µM): 99%
- residual activity (BRSK2 (human); compound 1.0 µM): 97%
- residual activity (CAMKK2 (human); compound 0.1 µM): 104%
- residual activity (CAMKK2 (human); compound 1.0 µM): 103%
- residual activity (DYRK1A (human); compound 0.1 µM): 92%
- residual activity (DYRK1A (human); compound 1.0 µM): 96%
- residual activity (EEF2K (human); compound 0.1 µM): 88%
- residual activity (EEF2K (human); compound 1.0 µM): 92%
- residual activity (FGFR1 (human); compound 0.1 µM): 118%
- residual activity (FGFR1 (human); compound 1.0 µM): 112%
- residual activity (GSK3B (human); compound 0.1 µM): 102%
- residual activity (GSK3B (human); compound 1.0 µM): 101%
- residual activity (IGF1R (human); compound 0.1 µM): 86%
- residual activity (IGF1R (human); compound 1.0 µM): 94%
- residual activity (IKBKE (human); compound 0.1 µM): 87%
- residual activity (IKBKE (human); compound 1.0 µM): 90%
- residual activity (MAPK12 (human); compound 0.1 µM): 97%
- residual activity (MAPK12 (human); compound 1.0 µM): 110%
- residual activity (MAPK13 (human); compound 0.1 µM): 88%
- residual activity (MAPK13 (human); compound 1.0 µM): 88%
- residual activity (MAPK3 (human); compound 0.1 µM): 99%
- residual activity (MAPK3 (human); compound 1.0 µM): 113%
- residual activity (MAPK9 (human); compound 0.1 µM): 94%
- residual activity (MAPK9 (human); compound 1.0 µM): 100%
- residual activity (MAPKAPK2 (human); compound 0.1 µM): 102%
- residual activity (MAPKAPK2 (human); compound 1.0 µM): 89%
- residual activity (MAPKAPK5 (human); compound 0.1 µM): 96%
- residual activity (MAPKAPK5 (human); compound 1.0 µM): 86%
- residual activity (MELK (human); compound 0.1 µM): 98%
- residual activity (MELK (human); compound 1.0 µM): 90%
- residual activity (MKNK1 (human); compound 0.1 µM): 110%
- residual activity (MKNK1 (human); compound 1.0 µM): 99%
- residual activity (PAK7 (human); compound 0.1 µM): 102%
- residual activity (PAK7 (human); compound 1.0 µM): 114%
- residual activity (PHKG1 (human); compound 0.1 µM): 113%
- residual activity (PHKG1 (human); compound 1.0 µM): 115%
- residual activity (PIM1 (human); compound 0.1 µM): 90%
- residual activity (PIM1 (human); compound 1.0 µM): 97%
- residual activity (PIM2 (human); compound 0.1 µM): 113%
- residual activity (PIM3 (human); compound 0.1 µM): 99%
- residual activity (PIM3 (human); compound 1.0 µM): 97%
- residual activity (PRKAA1 or PRKAA2 (rat); compound 0.1 µM): 90%
- residual activity (PRKAA1 or PRKAA2 (rat); compound 1.0 µM): 98%
- residual activity (PRKACA (human); compound 0.1 µM): 103%
- residual activity (PRKACA (human); compound 1.0 µM): 96%
- residual activity (PRKCZ (human); compound 0.1 µM): 95%
- residual activity (PRKCZ (human); compound 1.0 µM): 88%
- residual activity ([1]; compound 0.1 µM): 102%
- residual activity (STK3 (human); compound 0.1 µM): 97%
- residual activity (STK3 (human); compound 1.0 µM): 89%
- residual activity (SYK (human); compound 0.1 µM): 92%
- residual activity (SYK (human); compound 1.0 µM): 86%
Structure (SMILES): Cn1c(=O)c2c(ncn2C)n(C)c1=O

- residual activity (BRSK2 (human); compound 1.0 µM): 89%
- residual activity (BRSK2 (human); compound 10.0 µM): 45%
- residual activity (CAMKK2 (human); compound 1.0 µM): 94%
- residual activity (CAMKK2 (human); compound 10.0 µM): 78%
- residual activity (DYRK1A (human); compound 1.0 µM): 99%
- residual activity (DYRK1A (human); compound 10.0 µM): 82%
- residual activity (EEF2K (human); compound 1.0 µM): 88%
- residual activity (EEF2K (human); compound 10.0 µM): 67%
- residual activity (FGFR1 (human); compound 1.0 µM): 96%
- residual activity (FGFR1 (human); compound 10.0 µM): 79%
- residual activity (GSK3B (human); compound 1.0 µM): 126%
- residual activity (GSK3B (human); compound 10.0 µM): 99%
- residual activity (IGF1R (human); compound 1.0 µM): 80%
- residual activity (IKBKE (human); compound 1.0 µM): 83%
- residual activity (IKBKE (human); compound 10.0 µM): 74%
- residual activity (MAPK12 (human); compound 1.0 µM): 85%
- residual activity (MAPK12 (human); compound 10.0 µM): 66%
- residual activity (MAPK13 (human); compound 1.0 µM): 88%
- residual activity (MAPK13 (human); compound 10.0 µM): 73%
- residual activity (MAPK3 (human); compound 10.0 µM): 86%
- residual activity (MAPK9 (human); compound 1.0 µM): 90%
- residual activity (MAPK9 (human); compound 10.0 µM): 93%
- residual activity (MAPKAPK5 (human); compound 1.0 µM): 74%
- residual activity (MAPKAPK5 (human); compound 10.0 µM): 58%
- residual activity (MELK (human); compound 10.0 µM): 58%
- residual activity (MKNK1 (human); compound 1.0 µM): 97%
- residual activity (MKNK1 (human); compound 10.0 µM): 74%
- residual activity (PAK7 (human); compound 1.0 µM): 82%
- residual activity (PAK7 (human); compound 10.0 µM): 72%
- residual activity (PHKG1 (human); compound 1.0 µM): 70%
- residual activity (PHKG1 (human); compound 10.0 µM): 21%
- residual activity (PIM1 (human); compound 1.0 µM): 76%
- residual activity (PIM1 (human); compound 10.0 µM): 15%
- residual activity (PIM2 (human); compound 10.0 µM): 40%
- residual activity (PIM3 (human); compound 1.0 µM): 44%
- residual activity (PIM3 (human); compound 10.0 µM): 7%
- residual activity (PRKAA1 or PRKAA2 (rat); compound 1.0 µM): 87%
- residual activity (PRKAA1 or PRKAA2 (rat); compound 10.0 µM): 54%
- residual activity (PRKACA (human); compound 1.0 µM): 79%
- residual activity (PRKACA (human); compound 10.0 µM): 65%
- residual activity (PRKCZ (human); compound 10.0 µM): 10%
- residual activity ([1]; compound 1.0 µM): 55%
- residual activity ([1]; compound 10.0 µM): 13%
- residual activity (STK3 (human); compound 1.0 µM): 84%
- residual activity (STK3 (human); compound 10.0 µM): 67%
- residual activity (SYK (human); compound 1.0 µM): 106%
- residual activity (SYK (human); compound 10.0 µM): 91%
Structure (SMILES): O=C1Nc2nc(-c3c(O)cccc3OCC3CC3)cc(C3CCCNC3)c2CO1 (centres undefined)
